Experimental data taken from patent publication US5670667A, “Chroman-2-ylmethylamino derivatives” (American Home Products Corporation, priority 1996, dated 1997).

What was measured:
α1 = α1 IC50; format: binding
5-HT1a = target: T1, 5-HT1a (Homo sapiens, UniProt P08908); assay: biochemical; format: binding
T1 sequence (P08908 1-422): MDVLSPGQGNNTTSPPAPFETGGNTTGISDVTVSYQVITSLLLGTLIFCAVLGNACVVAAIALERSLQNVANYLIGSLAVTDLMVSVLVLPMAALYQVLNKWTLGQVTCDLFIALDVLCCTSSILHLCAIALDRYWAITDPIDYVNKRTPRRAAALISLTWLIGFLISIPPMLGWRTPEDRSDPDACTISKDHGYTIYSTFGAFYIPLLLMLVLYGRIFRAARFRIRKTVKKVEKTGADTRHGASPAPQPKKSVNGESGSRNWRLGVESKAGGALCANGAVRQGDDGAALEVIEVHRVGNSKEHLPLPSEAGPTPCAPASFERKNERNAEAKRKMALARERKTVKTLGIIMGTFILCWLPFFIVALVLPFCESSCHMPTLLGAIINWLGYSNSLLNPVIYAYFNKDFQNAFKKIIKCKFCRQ

SMILES	IC50 (α1)	IC50 (5-HT1a)
Oc1ccc2c(c1)OC(CNCc1ccccc1)CC2 (centres unmarked) [Example 1f, 2-(Benzylamino-methyl)-chroman-7-ol]	1140 nM	104 nM
Oc1ccc2c(c1)OC(CNCCCCc1ccccc1)CC2 (centres unmarked) [Example 1m, 2-[(4-Phenyl-butylamino)-methyl]-chroman-7-ol]	80 nM	
Fc1ccc(CNCC2CCc3ccccc3O2)cc1 (centres unmarked) [reference compound]	1280 nM	
c1ccc(CNCC2CCc3ccccc3O2)cc1 (centres unmarked) [reference compound]	630 nM	
